Converted amounts (≈) assume the structure as drawn.
Columns and labels:
[1] = tested on: C. glabrata ATCC 9003 YLO8; assay: microbe, parasite or virus in culture; details: Nakaseomyces glabratus, ATCC9003
[2] = tested on: C. tropicalis HIV patient YHO50013; assay: organism not typed
[3] = tested on: C. albicans HIV patient YHO50072; assay: organism not typed
[4] = tested on: C. tropicalis HIV patient YHO50114; assay: organism not typed
[5] = tested on: C. albicans HIV patient YHO50005; assay: organism not typed
[6] = tested on: C. parapsilosis ATCC 22019 YLO7; assay: microbe, parasite or virus in culture; details: Lodderomyces parapsilosis, ATCC22019
[7] = tested on: C. tropicalis HIV patient YHO50007; assay: organism not typed
[8] = tested on: C. dubliniensis HIV patient YHO50092; assay: organism not typed
C. krusei ATCC 6258 YLO6 = assay: microbe, parasite or virus in culture; details: Pichia kudriavzevii, ATCC6258
[9] = tested on: C. glabrata HIV patient YHO50105; assay: organism not typed
[10] = tested on: C. albicans ATCC 90028 YLO12; assay: microbe, parasite or virus in culture; details: Candida albicans, ATCC90028
[11] = tested on: C. tropicalis ATCC 13803 YLO86; assay: microbe, parasite or virus in culture; details: Candida tropicalis, ATCC13803
[12] = tested on: C. krusei HIV patient YHO50075; assay: organism not typed
[13] = tested on: C. albicans HIV patient YHO50001; assay: organism not typed

Compound: OC(Cn1cncn1)(Cn1cncn1)c1ccc(F)cc1F [Flu, fluconazole]
- MIC [1]: 16 µg/mL (≈ 52.2 µM)
- MIC [2]: > 64 µg/mL
- MIC [3]: > 64 µg/mL
- MIC [4]: > 64 µg/mL
- MIC [5]: 1 µg/mL (≈ 3.27 µM)
- MIC [6]: 8 µg/mL (≈ 26.1 µM)
- MIC [7]: > 64 µg/mL
- MIC [8]: 0.5 µg/mL (≈ 1.63 µM)
- MIC (C. krusei ATCC 6258 YLO6): 32 µg/mL (≈ 104 µM)
- MIC [9]: 16 µg/mL (≈ 52.2 µM)
- MIC [10]: 1 µg/mL (≈ 3.27 µM)
- MIC [11]: > 64 µg/mL
- MIC [12]: 64 µg/mL (≈ 209 µM)
- MIC [13]: 2 µg/mL (≈ 6.53 µM)

From patent publication US9073967B2, “High salt-resistance antibacterial peptide and method for producing the same” (NATIONAL TSING HUA UNIVERSITY, priority 2011, dated 2015)
